In US7514432B2, “Compounds and methods of treating cell proliferative diseases, retinopathies and arthritis” (Exonhit Therapeutics SA, priority 2003, dated 2009):

Columns and labels:
REF cells [1] = experiment: Lamellipodia/ruffles formation after wounding; format: cell-based
Protocol: This assay has been described by Nobes & Hall (J. Cell Biol., 1999). • Preparation of REF cells: REF cells are prepared from 15-18 E14 embryos. Briefly, the head, tail and viscerae are removed from the embryo. Only the torso is kept, sliced into small squares, washed, treated with trypsin-EDTA for 20 min. at 37° C., resuspended in medium, counted and plated. After 24 h, the cells are trypsinized and frozen in cryovials. 48 h before the wound healing assay, the cells are plated on coverslips. The day of the experiment, the cells are treated with the test compounds or DMSO alone. After 30 min., a scrape is done in the center of the coverslip using a small pipette tip. The cells are washed and fresh medium containing the compound or the DMSO is added. • Time-Lapse microscopy: The dishes containing the scraped coverslips and the treatment medium, sealed with parafilm is put under a thermostated microscope (37° C.) coupled to a video camera and a computer. Microscope images were collected every 5 minutes and recorded using the OpenLab software. When the assay is terminated (after 4 to 24 hours), pictures and movies are analyzed using the Metamorphe software. The pictures were calibrated (pixel converted to μm), and the velocity and total distance covered were calculated after tracking 7 to 10 single cells on the movies. […] The position of each point was recorded. […]

REF cells [2] = experiment: Wound healing assay (time-lapse microscopy); format: cell-based; conditions: time lapse 8 hours
Protocol: FIG. 4: Migration assays. (A) Wound healing assay in REF cells. 7.6 10^4 cells were plated on coverslips 48 hours before the experiment. The cells were pre-treated for 30 min. with the compounds, and then a scrape was done using a pipette tip. The scraped coverslips in treatment medium were put under a thermostated microscope coupled to a video camera. Movies were analyzed as described in material and methods, and velocity and total distance covered by the cells were evaluated. Bar graphs represent the mean±SEM of 2 to 4 experiments. (B) Boyden chamber migration assay in HMEC1, NIH3T3 and MDA-MB-231 cells. […] After labeling, cells were washed with HBSS and fluorescence was read in a fluorescence plate reader. Fluorescence values were normalized against the fluorescence obtained for the 1% DMSO control. […]
This assay has been described by Nobes & Hall (J. Cell Biol., 1999). • Preparation of REF cells: REF cells are prepared from 15-18 E14 embryos. […] Only the torso is kept, sliced into small squares, washed, treated with trypsin-EDTA for 20 min. at 37° C., resuspended in medium, counted and plated. […] Microscope images were collected every 5 minutes and recorded using the OpenLab software. When the assay is terminated (after 4 to 24 hours), pictures and movies are analyzed using the Metamorphe software. […] The position of each point was recorded. […]

[3] = test system: intersegmental vessels of zebrafish embryos; experiment: In vivo zebrafish angiogenesis assay; conditions: embryos 20 hpf, incubated 28 hours; for max inhibition of intersegmental vessels formation: 1% DMSO
Protocol: FIG. 6: In vivo zebrafish angiogenesis assay. 20 Hours post fertilization (hpf) embryos Were incubated with compounds and 1% DMSO for 28 hours. Vessels were stained with NBT/BCIP and morphometric analyses were done using the Adobe Photoshop software. For each condition, 10 embryos were analyzed and results were expressed as means±SEM. (A) dose response curves. (B) table presenting the 50% and max inhibition of intersegmental vessels formation together with the percentage of dead embryos (see material and methods).
In vivo zebrafish angiogenesis model: This assay is a viable and validated whole animal model for screening small molecules that affect blood vessel formation (Serbedzija et al, Angiogenesis, 1999). The study was subcontracted to Phylonix Pharmaceutical, Cambridge, Mass., USA. • Drug treatment: Intersegmental vessels (ISVs) in zebrafish are well accepted as angiogenic vessels, and they are easily observed using microscopy. By 20 hpf stage, the major vasculogenic vessels (dorsal aorta and caudal vein) have developed. By 48 hours post fertilization (hpf), ISVs have formed by sprouting from the dorsal aorta and caudal vein. Therefore, 20 hpf was used as the starting point and 48 hpf as the end point for drug treatment. Zebrafish embryos staged at 20 hpf were incubated with compound solution at 28° C. for 28 hours in 6-well plates, 20 embryos per well. Embryos treated with 1% DMSO and 5 μM Flavopiridol were used as negative and positive controls, respectively. • Microscopy: All light microscopy studies were performed using a ZEISS Stemi 2000-C stereomicroscope (Zeiss), equipped with a digital spot camera (Diagnostic Instruments Inc.). Images were further processed and analyzed using Adobe Photoshop 7.0 (Adobe). • Whole mount EAP staining: Embryos were fixed in 4% PFA for 2 hours at room temperature, and dehydrated in 100% ethanol following standard procedures. Embryos were then rehydrated, blocked, and stained with NBT/BCIP. After washing, embryos were examined by microscopy. • Quantitation of anti-angiogenic effects: To quantitate anti-angiogenic effects, 5 well developed trunk ISVs located around the anal pore were selected and morphometric analysis [area (pixel)× signal intensity] was performed using Adobe Photoshop. For each condition, 10 embryos were assessed and the mean value of 10 images was calculated using EXCEL software program (Microsoft Corporation). To calculate the inhibitory effect, the mean value of signal (S) in 5 ISVs in drug treated embryos was divided by mean value of S in DMSO control embryos, and calculated as % inhibition using the following formula: […]

Cl.Cl.O=c1cc(CN2CCOCC2)occ1OCCCCCSc1ccnc2cc(C(F)(F)F)ccc12 [EHT 1864, 5-(5-(7-(Trifluoromethyl)quinolin-4-ylthio)pentyloxy)-2-(morpholinomethyl)-4H-pyran-4-one dihydrochloride]
lamellipodia/ruffles formation after wounding (REF cells [1]): dose-dependent inhibition of lamellipodia/ruffles formation | decrease of migration of REF cells (velocity and total distance covered) (REF cells [2]; 30 μM): about 48% | anti-angiogenic activity in the zebrafish embryo [3]: dose-dependent anti-angiogenic activity | toxicity in zebrafish embryos [3]: much less toxic than reference compounds Flavopiridol and SU-5416 | max inhibition of intersegmental vessels formation [3]: 77%

CN1CCN(Cc2cc(=O)c(OCCCCCSc3ccnc4cc(C(F)(F)F)ccc34)co2)CC1.Cl.Cl.Cl [EHT 9241, 5-(5-(7-(Trifluoromethyl)quinolin-4-ylthio)pentyloxy)-2-((4-methylpiperazin-1-yl)methyl)-4H-pyran-4-one trihydrochloride]
lamellipodia/ruffles formation after wounding (REF cells [1]): dose-dependent inhibition of lamellipodia/ruffles formation | decrease of migration of REF cells (velocity and total distance covered) (REF cells [2]; 10 μM): 36% | max inhibition of intersegmental vessels formation [3]: 40%
